Experimental data taken from patent US5780605A, “6,9-bridged erythromycin derivatives” (Abbott Laboratories, priority 1997, dated 1998).

Tests used:
Experiment in all cases: in vitro antibacterial activity (MIC), BHI agar dilution
Format in all cases: cell-based
[1] = test system: Staphylococcus aureus ATCC 6538P; conditions: S. aureus ATCC 6538P, 35-37° C., 20 to 24 hours
Method: (§1) Representative compounds of the present invention were assayed in vitro for antibacterial activity as follows: Twelve petri dishes containing successive aqueous dilutions of the test compound mixed with 10 mL of sterilized Brain Heart Infusion (BHI) agar (Difco 0418-01-5) were prepared. Each plate was inoculated with 1:100 (or 1:10 for slow-growing strains, such as Micrococcus and Streptococcus) dilutions of up to 32 different microorganisms, using a Steers replicator block. […] In addition, a control plate, using BHI agar containing no test compound, was prepared and incubated at the beginning and end of each test.
(§2) An additional plate containing a compound having known susceptibility patterns for the organisms being tested and belonging to the same antibiotic class as the test compound was also prepared and incubated as a further control, as well as to provide test-to-test comparability.
(§3) After incubation, each plate was visually inspected. The minimum inhibitory concentration (MIC) was defined as the lowest concentration of drug yielding no growth, a slight haze, or sparsely isolated colonies on the inoculum spot as compared to the growth control.

[2] = test system: Streptococcus Pheumoniae GYR 1171; conditions: 35-37° C., 20 to 24 hours
Method: as §1, §2, §3

[3] = test system: Streptococcus Pheumoniae 5649; conditions: 35-37° C., 20 to 24 hours
Method: as §1, §2, §3

[4] = test system: Staphylococcus aureus A-5278; conditions: S. aureus A-5278, 35-37° C., 20 to 24 hours
Method: as §1, §2, §3

[5] = test system: Staphylococcus aureus 1775; conditions: S. aureus 1775, 35-37° C., 20 to 24 hours
Method: as §1, §2, §3

[6] = test system: Streptococcus agalactiae CMX 508; conditions: S. agalactiae CMX 508, 35-37° C., 20 to 24 hours
Method: as §1, §2, §3

[7] = test system: Staphylococcus epidermidis 3519; conditions: S. epidermidis 3519, 35-37° C., 20 to 24 hours
Method: as §1, §2, §3

Escherichia coli JUHL = conditions: E. coli JUHL, 35-37° C., 20 to 24 hours
Method: as §1, §2, §3

[8] = test system: Streptococcus bovis A-5169; conditions: S. bovis A-5169, 35-37° C., 20 to 24 hours
Method: as §1, §2, §3

[9] = test system: Micrococcus luteus ATCC 9341; conditions: M. luteus ATCC 9341, 35-37° C., 20 to 24 hours
Method: as §1, §2, §3

[10] = test system: Staphylococcus aureus CMX 553; conditions: S. aureus CMX 553, 35-37° C., 20 to 24 hours
Method: as §1, §2, §3

Escherichia coli DC-2 = conditions: E. coli DC-2, 35-37° C., 20 to 24 hours
Method: as §1, §2, §3

Candida albicans CCH 442 = conditions: C. albicans CCH 442, 35-37° C., 20 to 24 hours
Method: as §1, §2, §3

[11] = test system: Streptococcus pyogenes 930; conditions: S. pyogenes 930, 35-37° C., 20 to 24 hours
Method: as §1, §2, §3

[12] = test system: Enterococcus faecium ATCC 8043; conditions: E. faecium ATCC 8043, 35-37° C., 20 to 24 hours
Method: as §1, §2, §3

[13] = test system: Staphylococcus aureus A5177; conditions: S. aureus A5177, 35-37° C., 20 to 24 hours
Method: as §1, §2, §3

[14] = test system: Haemophilis Influenzae DILL AMP R; conditions: 35-37° C., 20 to 24 hours
Method: as §1, §2, §3

[15] = test system: Streptococcus pyogenes EES61; conditions: S. pyogenes EES61, 35-37° C., 20 to 24 hours
Method: as §1, §2, §3

[16] = test system: Streptococcus pyogenes PIU 2548; conditions: S. pyogenes PIU 2548, 35-37° C., 20 to 24 hours
Method: as §1, §2, §3

[17] = test system: Staphylococcus aureus NCTC10649M; conditions: S. aureus NCTC10649M, 35-37° C., 20 to 24 hours
Method: as §1, §2, §3

[18] = test system: Streptococcus Pheumoniae ATCC6303; conditions: 35-37° C., 20 to 24 hours
Method: as §1, §2, §3

[19] = test system: Mycobacterium smegmafis ATCC 114; conditions: 35-37° C., 20 to 24 hours
Method: as §1, §2, §3

[20] = test system: Micrococcus luteus ATCC 4698; conditions: M. luteus ATCC 4698, 35-37° C., 20 to 24 hours
Method: as §1, §2, §3

[21] = test system: Staphylococcus aureus CMX 642A; conditions: S. aureus CMX 642A, 35-37° C., 20 to 24 hours
Method: as §1, §2, §3

Escherichia coli SS = conditions: E. coli SS, 35-37° C., 20 to 24 hours
Method: as §1, §2, §3

[22] = test system: Streptococcus Pheumoniae 5979; conditions: 35-37° C., 20 to 24 hours
Method: as §1, §2, §3

[23] = test system: Nocardia Asteroides ATCC9970; conditions: 35-37° C., 20 to 24 hours
Method: as §1, §2, §3

In the case of `CC[C@H]1OC(=O)[C@H](C)[C@@H](O[C@H]2C[C@@](C)(OC)[C@@H](O)[C@H](C)O2)[C@H](C)[C@@H](O[C@@H]2O[C@H](C)C[C@H](N(C)C)[C@H]2O)[C@](C)(O)C[C@@H](C)C(=O)[C@H](C)[C@@H](O)[C@]1(C)O` [Ery. A, Erythromycin A, reference compound], the “MIC (minimum inhibitory concentration)” value [1] is reported as 0.2, the “MIC (minimum inhibitory concentration)” value [2] is reported as 0.06 and the “MIC (minimum inhibitory concentration)” value [3] is reported as 16. The “MIC (minimum inhibitory concentration)” value [4] was greater than 100, the “MIC (minimum inhibitory concentration)” value [5] was greater than 100 and the “MIC (minimum inhibitory concentration)” value [6] was 0.05. For the same molecule, the “MIC (minimum inhibitory concentration)” value [7] was 0.39, the “MIC (minimum inhibitory concentration)” value (Escherichia coli JUHL) was greater than 100 and the “MIC (minimum inhibitory concentration)” value [8] was 0.02. The “MIC (minimum inhibitory concentration)” value [9] was 0.05, the “MIC (minimum inhibitory concentration)” value [10] was 0.39 and the “MIC (minimum inhibitory concentration)” value (Escherichia coli DC-2) was greater than 100. The “MIC (minimum inhibitory concentration)” value (Candida albicans CCH 442) was greater than 100, the “MIC (minimum inhibitory concentration)” value [11] was greater than 100 and the “MIC (minimum inhibitory concentration)” value [12] was 0.05. The “MIC (minimum inhibitory concentration)” value [13] was 3.1, the “MIC (minimum inhibitory concentration)” value [14] was 4 and the “MIC (minimum inhibitory concentration)” value [15] was 0.05. The “MIC (minimum inhibitory concentration)” value [16] was 6.2, the “MIC (minimum inhibitory concentration)” value [17] was 0.39 and the “MIC (minimum inhibitory concentration)” value [18] was 0.06. For the same molecule, the “MIC (minimum inhibitory concentration)” value [19] was 3.1, the “MIC (minimum inhibitory concentration)” value [20] was 0.2 and the “MIC (minimum inhibitory concentration)” value [21] was 0.39.

With `CC[C@H]1OC(=O)[C@H](C)[C@@H](O[C@H]2C[C@@](C)(OC)[C@@H](O)[C@H](C)O2)[C@H](C)[C@@H](O[C@@H]2O[C@H](C)C[C@H](N(C)C)[C@H]2O)[C@@]2(C)C[C@@H](C)C(=NOCO2)[C@H](C)[C@@H](O)[C@]1(C)O` [Example 1] the “MIC (minimum inhibitory concentration)” value [1] was 6.2, the “MIC (minimum inhibitory concentration)” value [2] was 0.5 and the “MIC (minimum inhibitory concentration)” value [3] was 4. The “MIC (minimum inhibitory concentration)” value [4] was greater than 100, the “MIC (minimum inhibitory concentration)” value [5] was greater than 100 and the “MIC (minimum inhibitory concentration)” value (Escherichia coli SS) was 1.56. For the same molecule, the “MIC (minimum inhibitory concentration)” value [6] was 0.39, the “MIC (minimum inhibitory concentration)” value [7] was 6.2 and the “MIC (minimum inhibitory concentration)” value (Escherichia coli JUHL) was greater than 100. For the same molecule, the “MIC (minimum inhibitory concentration)” value [8] was 0.39, the “MIC (minimum inhibitory concentration)” value [9] was 0.2 and the “MIC (minimum inhibitory concentration)” value [10] was 6.2. The “MIC (minimum inhibitory concentration)” value (Escherichia coli DC-2) was greater than 100, the “MIC (minimum inhibitory concentration)” value (Candida albicans CCH 442) was greater than 100 and the “MIC (minimum inhibitory concentration)” value [11] was greater than 100. For the same molecule, the “MIC (minimum inhibitory concentration)” value [12] was 1.56, the “MIC (minimum inhibitory concentration)” value [13] was greater than 100 and the “MIC (minimum inhibitory concentration)” value [14] was 32. For the same molecule, the “MIC (minimum inhibitory concentration)” value [15] was 0.39, the “MIC (minimum inhibitory concentration)” value [16] was 6.2 and the “MIC (minimum inhibitory concentration)” value [22] was greater than 64. For the same molecule, the “MIC (minimum inhibitory concentration)” value [17] was 6.2, the “MIC (minimum inhibitory concentration)” value [18] was 1 and the “MIC (minimum inhibitory concentration)” value [19] was 1.56. For the same molecule, the “MIC (minimum inhibitory concentration)” value [20] was 1.56, the “MIC (minimum inhibitory concentration)” value [21] was 12.5 and the “MIC (minimum inhibitory concentration)” value [23] was 0.39.
